From patent US20100041722A1, “ORGANIC COMPOUNDS” (priority 2006, published 2010)

Key:
[1] = target: T1, aldosterone synthase (CYP11B2) (Homo sapiens, UniProt P19099); experiment: in vitro aldosterone synthase inhibition: aldosterone production in Ang II-stimulated NCI-H295R cells; assay type: cell-based; conditions: Table 1, read-out: AS IC50
T1 construct: host or cells: NCI-H295R human adrenocortical carcinoma cells
T1 sequence (P19099 25-503): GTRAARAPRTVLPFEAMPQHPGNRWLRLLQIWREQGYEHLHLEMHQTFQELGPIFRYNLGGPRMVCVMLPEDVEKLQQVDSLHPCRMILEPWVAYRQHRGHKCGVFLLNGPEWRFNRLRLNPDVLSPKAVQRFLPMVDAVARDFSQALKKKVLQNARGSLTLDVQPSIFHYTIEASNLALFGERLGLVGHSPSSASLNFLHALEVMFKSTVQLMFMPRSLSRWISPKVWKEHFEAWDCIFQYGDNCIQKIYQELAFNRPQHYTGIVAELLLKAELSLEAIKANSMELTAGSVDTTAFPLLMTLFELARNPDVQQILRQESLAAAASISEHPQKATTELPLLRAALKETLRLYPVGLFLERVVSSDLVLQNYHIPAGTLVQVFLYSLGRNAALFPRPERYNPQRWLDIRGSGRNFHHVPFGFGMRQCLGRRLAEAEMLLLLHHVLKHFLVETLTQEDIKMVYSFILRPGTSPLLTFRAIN
Text: Human adrenocortical carcinoma NCl-H295R cell line is obtained from American Type Culture Collection (Manassas, Va.). Insulin/transferrin/selenium (ITS)-A supplement (100×), DMEM/F-12, antibiotic/antimycotic (100×), and fetal calf serum (FCS) are purchased from Gibco (Grand Island, N.Y.). Anti-mouse PVT scintillation proximity assay (SPA) beads and NBS 96-well plates are obtained from Amersham (Piscataway, N.J.) and Corning (Acton, Mass.), respectively. Solid black 96-well flat bottom plates are purchased from Costar (Corning, N.Y.). Aldosterone and angiotensin (Ang II) are purchased from Sigma (St. Louis, Mo.). D-[1,2,6,7-^3H(N)]aldosterone was acquired from PerkinElmer (Boston, Mass.). Nu-serum was a product of BD Biosciences (Franklin Lakes, N.J.). The NADPH regenerating system, dibenzylfluorescein (DBF), and human aromatase supersomes® are obtained from Gentest (Woburn, Mass.).
For in vitro measurement of aldosterone activity, human adrenocortical carcinoma NCl-H295R cells are seeded in NBS 96-well plates at a density of 25,000 cells/well in 100 μl of a growth medium containing DMEM/F12 supplemented with 10% FCS, 2.5% Nu-serum, 1 μg ITS/ml, and 1× antibiotic/antimycotic. The medium is changed after culturing for 3 days at 37° C. under an atmosphere of 5% CO2/95% air. On the following day, cells are rinsed with 100 μl of DMEM/F12 and incubated with 100 μl of treatment medium containing 1 μM Ang II and a compound at different concentrations in quadruplicate wells at 37° C. for 24 hr. At the end of incubation, 50 μl of medium is withdrawn from each well for measurement of aldosterone production by an RIA using mouse anti-aldosterone monoclonal antibodies.
Measurement of aldosterone activity can also be performed using a 96-well plate format. Each test sample is incubated with 0.02 μCi of D-[1,2,6,7-^3H(N)]aldosterone and 0.3 μg of anti-aldosterone antibody in phosphate-buffered saline (PBS) containing 0.1% Triton X-100, 0.1% bovine serum albumin; and 12% glycerol in a total volume of 200 μl at room temperature for 1 hr. Anti-mouse PVT SPA beads (50 μl) are then added to each well and incubated overnight at room temperature prior to counting in a Microbeta plate counter. The amount of aldosterone in each sample is calculated by comparing with a standard curve generated using known quantities of the hormone.
Full concentration-response curves of the test compound are performed at least 3 times. The IC50 values are derived using a non-linear least squares curve-fitting program from Microsoft XLfit.

[2] = target: T2, CYP11B1 (steroid 11β-hydroxylase) (Homo sapiens, UniProt P15538); experiment: in vitro CYP11B1 inhibition: steroid release from NCI-H295R cells; assay type: cell-based; conditions: Table 1
T2 construct: Thus, the NCl-H295R cells have CYP11B1 (steroid 11 p-hydroxylase); host or cells: NCI-H295R human adrenocortical carcinoma cells
T2 sequence (P15538 25-503): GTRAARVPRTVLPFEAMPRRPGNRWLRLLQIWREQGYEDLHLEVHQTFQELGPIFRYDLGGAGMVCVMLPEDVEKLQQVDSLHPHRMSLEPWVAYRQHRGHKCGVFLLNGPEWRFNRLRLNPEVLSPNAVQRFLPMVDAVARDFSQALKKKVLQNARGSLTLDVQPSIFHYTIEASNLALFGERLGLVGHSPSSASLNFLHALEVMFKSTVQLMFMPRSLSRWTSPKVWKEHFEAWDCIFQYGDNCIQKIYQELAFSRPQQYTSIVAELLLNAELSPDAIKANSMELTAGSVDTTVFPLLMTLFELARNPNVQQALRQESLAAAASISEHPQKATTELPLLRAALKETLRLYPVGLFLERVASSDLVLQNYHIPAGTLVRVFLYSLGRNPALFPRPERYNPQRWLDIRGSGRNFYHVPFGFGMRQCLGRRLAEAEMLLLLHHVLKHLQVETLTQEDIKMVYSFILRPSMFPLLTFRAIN
Text: The in vitro inhibitory activities for CYP11B1 can be determined by the following assay.
The cell line NCl-H295R was originally isolated from an adrenocortical carcinoma and has been characterized in the literature through the stimulable secretion of steroid hormones and the presence of the enymes essential for steroidogenesis. Thus, the NCl-H295R cells have CYP11B1 (steroid 11 p-hydroxylase). The cells show the physiological property of zonally undifferentiated human foetal adrenocortical cells which, however, have the capacity to produce the steroid hormones which are formed in the three, phenotypically distinguishable zones in the adult adrenal cortex. […]
The excretion of aldosterone, cortisol, corticosterone and estradiol/estrone into the culture medium can be detected and quantified by commercially available, specific monoclonal antibodies in radioimmunoassays in accordance with the manufacturer's instructions.
Inhibition of the release of certain steroids can be used as a measure of the respective enzyme inhibition by the added test compounds. The dose-dependent inhibition of enzymic activity by a compound is calculated by means of an inhibition plot which is characterized by an IC50.
The IC50 values for active test compounds are ascertained by a simple linear regression analysis in order to construct inhibition plots without data weighting. The inhibition plot is calculated by fting a 4-parameter logistic function to the raw data points using the least squares method. The equation of the 4-parameter logistic function is calculated as follows: Y=(d−a)/((1+(x/c)b))+a I where: a=minimum data level b=gradient I c=ICED d=maximum data level x=inhibitor concentration.

## ON=Cc1cncn1C1Cc2ccccc2C1 [LDK909, 3-Indan-2-yl-3H-imidazole-4-carbaldehyde oxime]
[1]
  IC50: 0.378 µM

## Cc1noc(-c2cncn2C2Cc3ccccc3C2)n1 [LDK260, 5-(3-Indan-2-yl-3H-imidazol-4-yl)-3-methyl-[1,2,4]oxadiazole]
[1]
  IC50: 0.095 µM
[2]
  IC50: 0.725 µM

## COC(=O)c1cncn1C1CCc2ccccc2C1 (centres unmarked) [LDI154, 3-(1,2,3,4-Tetrahydro-naphthalen-2-yl)-3H-imidazole-4-carboxylic acid methyl ester]
[1]
  IC50: 0.006 µM
[2]
  IC50: 0.042 µM

## COC(=O)c1cn(C2Cc3ccccc3C2)cn1 [LDG688, 1-Indan-2-yl-1H-imidazole-4-carboxylic acid methyl ester]
[1]
  IC50: 0.009 µM
[2]
  IC50: 0.107 µM

## COC(=O)c1cncn1C1COc2ccccc2OC1 [LDS237, 3-(3,4-Dihydro-2H-benzo[b][1,4]dioxepin-3-yl)-3H-imidazole-4-carboxylic acid methyl ester]
[1]
  IC50: 0.214 µM
